Assay results from BindingDB's records for patent US20230159469 (Txinno Bioscience, 2023).

molecular target: T1, Ectonucleotide pyrophosphatase/phosphodiesterase family member 1 (Homo sapiens, UniProt P22413); test: ENPP1 Enzyme Assay with eGAMP Substrate
T1 sequence (P22413 whole entry): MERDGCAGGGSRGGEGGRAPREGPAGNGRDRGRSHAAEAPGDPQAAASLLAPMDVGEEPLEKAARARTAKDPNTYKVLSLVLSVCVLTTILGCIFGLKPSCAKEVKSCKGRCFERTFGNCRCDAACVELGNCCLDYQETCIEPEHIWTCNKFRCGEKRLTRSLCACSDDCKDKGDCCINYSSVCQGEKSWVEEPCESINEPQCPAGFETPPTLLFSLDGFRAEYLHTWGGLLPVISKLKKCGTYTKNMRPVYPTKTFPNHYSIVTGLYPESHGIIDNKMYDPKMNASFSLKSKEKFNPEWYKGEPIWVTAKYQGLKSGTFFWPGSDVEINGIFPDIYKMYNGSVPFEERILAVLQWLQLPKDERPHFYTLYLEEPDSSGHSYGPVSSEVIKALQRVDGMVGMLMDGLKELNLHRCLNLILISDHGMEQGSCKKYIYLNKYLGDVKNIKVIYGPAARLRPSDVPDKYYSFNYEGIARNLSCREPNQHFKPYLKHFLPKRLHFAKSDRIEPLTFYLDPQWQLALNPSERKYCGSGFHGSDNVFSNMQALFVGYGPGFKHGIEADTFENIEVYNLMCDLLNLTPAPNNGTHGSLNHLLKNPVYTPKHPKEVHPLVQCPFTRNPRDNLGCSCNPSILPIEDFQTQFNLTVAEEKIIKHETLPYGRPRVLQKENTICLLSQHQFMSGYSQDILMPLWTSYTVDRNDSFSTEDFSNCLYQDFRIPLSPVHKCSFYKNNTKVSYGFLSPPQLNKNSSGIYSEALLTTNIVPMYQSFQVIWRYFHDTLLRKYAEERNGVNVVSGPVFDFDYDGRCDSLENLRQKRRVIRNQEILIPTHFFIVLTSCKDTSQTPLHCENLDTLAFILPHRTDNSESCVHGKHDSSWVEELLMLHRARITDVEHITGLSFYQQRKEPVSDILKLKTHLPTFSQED
Procedure: ENPP1 hydrolyzes nucleotides or nucleotide derivatives to produce nucleoside -5′-monophosphate and pyrophosphate. in addition, ENPP1 hydrolyzes 2′,3′-cGAMP to produce 5′-adenosine monophosphate (AMP) and 5′-guanosine monophosphate (GMP). AMP produced from the reaction is measured using the AMP-Glo kit (Promega). The AMP-Glo kit contains two reagents. The first reagent terminates the AMP-producing enzymatic reaction, removes ATP and converts the produced AMP into ADP. The second reagent converts ADP to ATP which is used to generate luminescence in the luciferase reaction. […] CaCl2, 1 μM ZnCl2, 5% glycerol and 1% DMSO. […] The reaction was initiated by addition of cGAMP (at a final concentration of 5 μM) and reacted at 37 C. for 90 minutes. At the end of the reaction, 10 μl of the AMP-Glo first reagent was added to stop the reaction and the result was stored at room temperature for […]. After storage, 20 μl of an AMP detection solution (a mixture of AMP-Glo II reagent and Kinase-Gio at a ratio of 1:100) was added and stored at room. temperature for 1 hour. Luminescence signals were measured using a Victor plate reader (Perkin Elmer). The maximal activity control (containing enzymes and substrates only in the presence of 1% DMSO; MAX) and the minimal activity control (containing substrates and 1% DMSO; MIN) were evaluated simultaneously. In each experiment, serially diluted reference ENPP1 inhibitors were tested together. IC50, indicating % residual activity versus compound concentration was determined by fitting inhibition curves using the 3-parameter analysis of GraphPad Prism software. Serially diluted samples of one compound were tested two or more times and an average IC50 of each compound was calculated.

IC50 | Compound
< 1000 nM | NS(=O)(=O)Nc1cccc(-c2n[nH]c(=O)c3ccccc23)c1 [US20230159469, Example 87]
< 1000 nM | N=S(=O)(O)NCc1ccc(-c2n[nH]c(=O)c3ccccc23)cc1 [US20230159469, Example 96]
≥ 1000 nM | COc1cc2c(-c3ccc(CNS(=N)(=O)O)cc3)nn(C)c(=O)c2cc1OC [US20230159469, Example 108]
